Among the test systems are SK-OV-3 ovarian; MALME-3M melanoma; UO-31 renal; SK-MEL-5 melanoma; HOP-92 NSCLC; A549 NSCLC; SN12C renal; NCI-H522 lung; RPMI-8226 leukemia; SW-620 colon.
Holding throughout (experiment): DTP human tumour cell line panel, 48 h

In PubChem BioAssay (NCI) one finds GI50 and TGI data, which are given here for eight compounds.

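Grown in 96-well plates, cells were treated for 48 hours with each compound at five concentrations. Insufficient inhibition: endpoint recorded as highest concentration tested. GI50 marks 50% less growth. The concentration for full growth arrest is given as TGI.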 A value given as a limit tells only on which side of the number the result lay.

In the case of `O=C1OCC2=C1C(c1cccc(C(F)(F)F)c1)c1cc3c(cc1N2CCO)OCO3` (stereo not given), the GI50 (as a rule, the concentration giving 50% growth inhibition) with SK-OV-3 ovarian was 2.37 µM; in the test with MALME-3M melanoma it was 2.67 µM; in the test on UO-31 renal, 2.19 µM; with SK-MEL-5 melanoma, 0.937 µM; in the test on HOP-92 NSCLC, 2.03 µM; in the test with A549 NSCLC, 2.9 µM. Further, the GI50 with SN12C renal is 2.9 µM; with NCI-H522 lung it was 0.573 µM; in the test on RPMI-8226 leukemia, 1.79 µM; in the test on SW-620 colon, 0.84 µM. The TGI (usually the concentration giving total growth inhibition) in the test on SK-OV-3 ovarian was more than 50 µM; in the test with MALME-3M melanoma, more than 50 µM; in the test on UO-31 renal, more than 50 µM; in the test with SK-MEL-5 melanoma it was 15.9 µM; with HOP-92 NSCLC it was more than 50 µM; in the test with A549 NSCLC it was more than 50 µM. Besides, the TGI in the test with SN12C renal is more than 50 µM; in the test on NCI-H522 lung, 2.16 µM; with RPMI-8226 leukemia, more than 50 µM; with SW-620 colon, more than 50 µM.

For `Nc1ccc(-c2ccc(Nc3cc(S(=O)(=O)O)c(N)c4c3C(=O)c3ccccc3C4=O)cc2)c(S(=O)(=O)O)c1`, the TGI in the test with SK-OV-3 ovarian, in the test with MALME-3M melanoma, in the test on UO-31 renal, with SK-MEL-5 melanoma, in the test with HOP-92 NSCLC and in the test on A549 NSCLC was more than 100 µM each time. For the same compound, the TGI in the test on SN12C renal, with NCI-H522 lung, in the test with RPMI-8226 leukemia and with SW-620 colon was more than 100 µM in each case.

On to `C/C=C/C(=O)[C@@H](O)C(C)C`, for which the TGI in the test with SK-OV-3 ovarian, in the test with MALME-3M melanoma, in the test on UO-31 renal, in the test on SK-MEL-5 melanoma, with HOP-92 NSCLC and in the test on A549 NSCLC was more than 100 µM in each case. Moreover, the TGI with SN12C renal, in the test on NCI-H522 lung, in the test with RPMI-8226 leukemia and with SW-620 colon was more than 100 µM each time.

On to `COc1cc(/C=C2\CCCC3C2=Nc2ccccc2NC3c2cc(OC)c(OC)c(OC)c2)cc(OC)c1OC` (stereo not given), for which the GI50 is 4.87 µM with SK-OV-3 ovarian; 1.56 µM in the test on MALME-3M melanoma; 1.66 µM in the test with UO-31 renal; 1.95 µM in the test with SK-MEL-5 melanoma; 1.83 µM in the test on HOP-92 NSCLC; 1.9 µM in the test on A549 NSCLC. The GI50 in the test on SN12C renal was 2.1 µM; in the test with NCI-H522 lung, 1.9 µM; in the test with RPMI-8226 leukemia it was 0.389 µM; with SW-620 colon, 1.6 µM. Further, the concentration for total growth inhibition (TGI) with SK-OV-3 ovarian was more than 100 µM; in the test with MALME-3M melanoma it was 6.56 µM; in the test on UO-31 renal, 4.48 µM; with SK-MEL-5 melanoma, 5.72 µM; with HOP-92 NSCLC, 9.84 µM; with A549 NSCLC it was 8.06 µM. The TGI in the test on SN12C renal came out at 14 µM; in the test on NCI-H522 lung it was 4.92 µM; with RPMI-8226 leukemia, 2.4 µM; in the test with SW-620 colon it was 6.77 µM.

As to `O=C(Nc1ccc(Cl)cc1F)c1cc(F)ccc1O`, the GI50 is 1.25 µM in the test on SK-OV-3 ovarian; 0.41 µM in the test with MALME-3M melanoma; 0.314 µM with UO-31 renal; 0.274 µM in the test on SK-MEL-5 melanoma; 0.196 µM in the test on HOP-92 NSCLC; 2.79 µM with A549 NSCLC. Further, the GI50 with SN12C renal is 0.643 µM; in the test on NCI-H522 lung, 0.379 µM; with RPMI-8226 leukemia, 0.449 µM; with SW-620 colon it was 1.46 µM. Further, the TGI was 10.4 µM with SK-OV-3 ovarian; 2.27 µM in the test on MALME-3M melanoma; 3.38 µM in the test on UO-31 renal; 0.847 µM with SK-MEL-5 melanoma; 0.874 µM in the test on HOP-92 NSCLC; more than 45.8 µM with A549 NSCLC. Also, the TGI in the test on SN12C renal came to 5.64 µM; with NCI-H522 lung, 9.26 µM; with RPMI-8226 leukemia, 3.99 µM; in the test with SW-620 colon, 23.6 µM.

Regarding `Cc1c2cnccc2c(C)c2c1c1cc(C(=O)O)ccc1n2C`, the GI50 with SK-OV-3 ovarian was 0.905 µM; in the test on MALME-3M melanoma, 0.942 µM; with UO-31 renal, 0.49 µM; with SK-MEL-5 melanoma it was 0.897 µM; in the test with HOP-92 NSCLC, 0.913 µM; in the test with A549 NSCLC, 1.68 µM. The GI50 in the test on SN12C renal was 0.772 µM; in the test with NCI-H522 lung, 0.943 µM; in the test with RPMI-8226 leukemia, 1.26 µM; in the test with SW-620 colon it was 0.49 µM. Besides, the concentration for total growth inhibition (TGI) in the test on SK-OV-3 ovarian is 7.63 µM; with MALME-3M melanoma it was 2.97 µM; with UO-31 renal it was 4.21 µM; in the test with SK-MEL-5 melanoma, 2.44 µM; in the test on HOP-92 NSCLC, 5.95 µM; in the test with A549 NSCLC it was 6.68 µM. The TGI with SN12C renal worked out at 10.2 µM; with NCI-H522 lung, 3.9 µM; in the test with RPMI-8226 leukemia, 5.66 µM; in the test with SW-620 colon it was 6.7 µM.

As for `C=CC(=O)NCCOc1cccc(Nc2cc(NCCCNC(=O)C3CCC3)c(Br)cn2)c1`, the GI50 in the test on SK-OV-3 ovarian is 1 µM; in the test with MALME-3M melanoma, 1.46 µM; in the test with UO-31 renal, 0.372 µM; in the test on SK-MEL-5 melanoma, 1.39 µM; in the test on HOP-92 NSCLC it was 0.826 µM; in the test with A549 NSCLC, 0.881 µM. In addition, the GI50 with SN12C renal is 0.623 µM; in the test with NCI-H522 lung, 0.819 µM; in the test with RPMI-8226 leukemia it was 1.66 µM; in the test with SW-620 colon, 0.904 µM. Moreover, the TGI with SK-OV-3 ovarian was 4.06 µM; with MALME-3M melanoma, 6.43 µM; in the test on UO-31 renal, 1.11 µM; in the test on SK-MEL-5 melanoma it was 5.24 µM; with HOP-92 NSCLC, more than 25 µM; in the test on A549 NSCLC, 14.7 µM. In addition, the TGI is more than 25 µM in the test on SN12C renal, 4.96 µM in the test with NCI-H522 lung, more than 25 µM with RPMI-8226 leukemia and 6.53 µM with SW-620 colon.

As to `NC(=O)c1ccc2nc(-c3ccc(C4(N)CCC4)cc3)c(-c3ccccc3)n2n1`, the GI50 with SK-OV-3 ovarian is 0.243 µM; in the test on MALME-3M melanoma, 1.19 µM; in the test on UO-31 renal, 0.409 µM; in the test on SK-MEL-5 melanoma it was 10.9 µM; in the test with HOP-92 NSCLC it was 0.815 µM; in the test on A549 NSCLC, 11.7 µM. The GI50 in the test with SN12C renal was 12 µM; in the test on NCI-H522 lung it was 16.7 µM; in the test on RPMI-8226 leukemia, 10.9 µM; in the test with SW-620 colon, 15 µM. The TGI in the test with SK-OV-3 ovarian is 12.7 µM; in the test with MALME-3M melanoma, 19.7 µM; in the test with UO-31 renal, 13.5 µM; in the test with SK-MEL-5 melanoma it was 23.3 µM; with HOP-92 NSCLC, 14.1 µM; in the test on A549 NSCLC, 28.5 µM. Also, the TGI in the test on SN12C renal was determined as 27.5 µM; in the test with NCI-H522 lung, 33.9 µM; with RPMI-8226 leukemia, 30.9 µM; in the test with SW-620 colon, 31.3 µM.
